Measured values as given in patent US12473295B2, “Substituted straight chain spiro derivatives” (Janssen Pharmaceutica NV, priority 2019, dated 2025).
Structures can show the parent of a compound that is named as a salt. Where two headings read alike, the source gives them in different places.

What was measured:
[1] = molecular target: menin/MLL (terbium chelate-labeled menin, FITC-MBM1 peptide) (Homo sapiens (Human), UniProt O00255); assay: Menin/MLL homogenous time-resolved fluorescence (HTRF) assay; type: binding; settings: HTRF-30 min incubation IC50, 30 min incubation;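 further: IC50 from percent inhibition of HTRF signal, normalized between wells without competitor and wells with a saturating competitor that displaces FITC-MBM1 from His-tagged menin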
Chain of menin/MLL (terbium chelate-labeled menin, FITC-MBM1 peptide) (O00255 other isoform, or with tags, fused parts or gaps): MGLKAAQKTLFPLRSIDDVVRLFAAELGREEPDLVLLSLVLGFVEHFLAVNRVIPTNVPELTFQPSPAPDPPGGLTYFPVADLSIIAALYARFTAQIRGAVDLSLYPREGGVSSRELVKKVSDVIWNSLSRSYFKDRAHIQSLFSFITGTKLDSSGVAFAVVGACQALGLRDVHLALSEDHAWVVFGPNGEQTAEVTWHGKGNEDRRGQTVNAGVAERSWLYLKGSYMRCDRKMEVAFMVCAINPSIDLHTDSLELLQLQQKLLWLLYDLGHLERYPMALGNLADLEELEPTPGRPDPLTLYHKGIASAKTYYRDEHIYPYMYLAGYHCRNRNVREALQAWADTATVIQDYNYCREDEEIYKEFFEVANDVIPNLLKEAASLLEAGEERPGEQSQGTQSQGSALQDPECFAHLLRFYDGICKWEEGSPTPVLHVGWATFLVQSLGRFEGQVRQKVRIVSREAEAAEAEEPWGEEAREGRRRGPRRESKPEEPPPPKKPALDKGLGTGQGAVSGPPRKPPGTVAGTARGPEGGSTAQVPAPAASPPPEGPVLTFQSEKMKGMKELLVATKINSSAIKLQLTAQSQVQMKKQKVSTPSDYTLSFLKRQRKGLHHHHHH

[2] = test system: MOLM14 cells; assay: Proliferation assay (spheroid growth, 8 days), MOLM14; type: cell-based, human; settings: MOLM14, 8 days, read-out: spheroid assay_OneTime MOLM14 IC50;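 further: spheroid size read as confluence by live-cell imaging, compounds added at a range of concentrations with 0.3% DMSO, DMSO-treated wells = 0%, highest reference dose = low control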
[3] = test system: OCI-AML3 cells; assay: Proliferation assay (spheroid growth, 8 days), OCI-AML3; type: cell-based, human; settings: OCI-AML3, 8 days
Procedure: (§1) The anti-proliferative effect of menin/MLL protein/protein interaction inhibitor test compounds was assessed in human leukemia cell lines. The cell line MOLM14 harbors a MLL translocation and expresses the MLL fusion protein MLL-AF9, respectively, as well as the wildtype protein from the second allele. OCI-AML3 cells that carry the NPM1c gene mutation were also tested. […] KO-52 was used as a control cell line containing two MLL (KMT2A) wildtype alleles in order to exclude compounds that display general cytotoxic effects.
(§2) KO-52 and OCI-AML3 cell lines were propagated in alpha-MEM (Sigma Aldrich) supplemented with 20% heat-inactivated fetal bovine serum (HyClone), 2 mM L-glutamine (Sigma Aldrich) and 50 μg/ml gentamycin (Gibco).
(§3) In order to assess the anti-proliferative effects, 200 MOLM14 cells, 200 OCI-AML3 cells or 300 KO-52 cells were seeded in 200 μl media per well in […] round bottom, ultra-low attachment plates (Costar, catalogue number 7007). Cell seeding numbers were chosen based on growth curves to ensure linear growth throughout the experiment. Test compounds were added at different concentrations and the DMSO content was normalized to 0.3%. Cells were incubated for 8 days at 37° C. and 5% CO2. Spheroid like growth was measured in real-time by live-cell imaging (IncuCyteZOOM, Essenbio, 4× objective) acquiring images at day 8. Confluence (%) as a measure of spheroid size was determined using an integrated analysis tool.
(§4) In order to determine the effect of the test compounds over time, the confluence in each well as a measure of spheroid size, was calculated. Confluence of the highest dose of a reference compound was used as baseline for the LC (Low control) and the confluence of DMSO treated cells was used as 0% cytotoxicity (High Control, HC).
(§5) GraphPad Prism(version 7.00) was used to calculate the IC50. Dose-response equation was used for the plot of % Effect vs Log 10 compound concentration with a variable slope and fixing the maximum to 100% and the minimum to 0%.

[4] = test system: KO-52 cells; assay: Proliferation assay (spheroid growth, 8 days), KO-52 control cell line; type: cell-based, human; settings: Homo sapiens, […], read-out: spheroid assay_OneTime KO-52 IC50
Procedure: as §1, §2, §3, §4, §5

[5] = test system: MEIS1 mRNA; assay: MEIS1 mRNA expression assay (Quantigene Singleplex) in MOLM14 cells; type: cell-based, human; settings: Homo sapiens, MOLM-14, 48 h, 48 hours incubation;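 further: MEIS1 transcript levels read by probe hybridization and normalized to RPL28 mRNA, with IC50 fitted to fold changes across a rising compound concentration series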

Compound | IC50 [1] | IC50 [2] | IC50 [3] | IC50 [5] | IC50 ([2]; Homo sapiens, MOLM-14, […]) | IC50 ([3]; Homo sapiens, OCI-AML-3, […]) | IC50 [4]
COCCN(C)CCC[C@@H](C(C)C)N1CC2(CCN(c3ncnnc3Oc3ccc(F)cc3C(=O)N(C(C)C)C(C)C)C2)C1 (single isomer, unassigned) [Compound 95, (*S)-5-fluoro-N,N-isopropyl-2-((5-(2-(6-((2-methoxyethyl)(methyl)amino)-methylhexan-3-yl)-2,6-diazaspiro[3.4]octan-6-yl)-1,2,4-triazin-6-yl)oxy)benzamide oxalate] | 4.98 nM | – | – | ~620 nM | 390 nM | 1620 nM | > 15000 nM
CC(C)[C@@H](CCCN(C)CCC(=O)N(C)C)N1CC2(CCN(c3ncnnc3Oc3ccc(F)cc3C(=O)N(C(C)C)C(C)C)C2)C1 (single isomer, unassigned) [Compound 145, (*R)-2-((5-(2-(6-((3-(dimethylamino)-3-oxopropyl)(methyl)amino)-2-methylhexan-3-yl)-2,6-diazaspiro[3.4]octan-6-yl)-1,2,4-triazin-6-yl)oxy)-5-fluoro-N,N-diisopropylbenzamide fumarate] | 0.07 nM | – | – | 21 nM | 14 nM | 110 nM | > 15000 nM
CCN(C(=O)c1cc(F)ccc1Oc1nncnc1N1CCC2(C1)CN([C@H](CCNCCC(N)=O)C(C)C)C2)C(C)C (single isomer, unassigned) [Compound 278, (*R)-2-((5-(2-(1-((3-amino-3-oxopropyl)amino)-4-methylpentan-3-yl)-2,6-diazaspiro[3.4]octan-6-yl)-1,2,4-triazin-6-yl)oxy)-N-ethyl-5-fluoro-N-isopropylbenzamide fumarate] | 0.068 nM | – | – | > 1000 nM | > 940 nM | 3210 nM | > 15000 nM
CC(C)C(CCCN(C)C)N1CC2(CCN(c3ccnnc3Oc3ccc(F)cc3C(=O)N(C(C)C)C(C)C)C2)C1 (stereo not shown) [Compound 74, 2-((4-(2-(6-(dimethylamino)-2-methylhexan-3-yl)-2,6-diazaspiro[3.4]octan-6-yl)pyridazin-3-yl)oxy)-5-fluoro-N,N-diisopropylbenzamide] | 0.51 nM | – | – | 260 nM | 140 nM | 1290 nM | 10600 nM
CCN(C(=O)c1cc(F)ccc1Oc1nnc(Cl)nc1N1CCC2(C1)CN([C@H](CCCN(C)CCOC)C(C)C)C2)C(C)C [Compound 394, (R)-2-((3-chloro-5-(2-(6-((2-methoxyethyl)(methyl)amino)-2-methylhexan-3-yl)-2,6-diazaspiro[3.4]octan-6-yl)-1,2,4-triazin-6-yl)oxy)-N-ethyl-5-fluoro-N-isopropylbenzamide fumarate] | – | – | – | – | 110 nM | 330 nM | > 15000 nM
CCN(C(=O)c1cc(F)ccc1Oc1nncnc1N1CCC2(C1)CN([C@@H](CCC(C)(C)N(C)C)C(C)C)C2)C(C)C (single isomer, unassigned) [Compound 33, (*S)-2-((5-(2-(6-(dimethylamino)-2,6-dimethylheptan-3-yl)-2,6-diazaspiro[3.4]octan-6-yl)-1,2,4-triazin-6-yl)oxy)-N-ethyl-5-fluoro-N-isopropylbenzamide] | 2.84 nM | – | – | > 1000 nM | > 940 nM | – | > 15000 nM
CCN(C(=O)c1cc(F)ccc1Oc1nncnc1N1CCC2(C1)CN([C@H](CCCN(C)CCOC)C(C)C)C2)C(C)C [Compound 27, (R)-N-ethyl-5-fluoro-N-isopropyl-2-((5-(2-(6-((2-methoxyethyl)(methyl)amino)-2-methylhexan-3-yl)-2,6-diazaspiro[3.4]octan-6-yl)-1,2,4-triazin-6-yl)oxy)benzamide] | – | – | – | – | – | 91 nM | 6850 nM

Continued, in another order:

IC50 [1] | IC50 [2] | IC50 [3] | IC50 [5] | IC50 ([2]; Homo sapiens, MOLM-14, […]) | IC50 ([3]; Homo sapiens, OCI-AML-3, […]) | Compound | IC50 [4]
0.92 nM | 29 nM | 49 nM | 39 nM | – | – | CCN(C(=O)c1cc(F)ccc1Oc1nncnc1N1CCC2(C1)CN(C(C(C)C)C(C)CCN(C)CCOC)C2)C(C)C (single isomer, unassigned) [Compound 266, N-ethyl-5-fluoro-N-isopropyl-2-((5-(2-(6-((2-methoxyethyl)(methyl)amino)-2,4-dimethylhexan-3-yl)-2,6-diazaspiro[3.4]octan-6-yl)-1,2,4-triazin-6-yl)oxy)benzamide (mixture of R,R and S,S; or mixture of R,S and S,R) fumarate] | > 15000 nM
0.29 nM | – | – | 340 nM | 200 nM | 530 nM | CCN(C(=O)c1cc(F)ccc1Oc1nncnc1N1CCC2(C1)CN([C@H](CCNCCO)C(C)C)C2)C(C)C (single isomer, unassigned) [Compound 268, (*R)—N-ethyl-5-fluoro-2-((5-(2-(1-((2-hydroxyethyl)amino)-4-methylpentan-3-yl)-2,6-diazaspiro[3.4]octan-6-yl)-1,2,4-triazin-6-yl)oxy)-N-isopropylbenzamide fumarate] | > 15000 nM
~0.26 nM | – | – | 120 nM | 170 nM | 290 nM | CCN(C(=O)c1cc(F)ccc1Oc1nncnc1N1CCC2(C1)CN([C@H](CCCN(C)[C@@H](C)CC(=O)NC)C(C)C)C2)C(C)C [Compound 193, N-ethyl-5-fluoro-N-isopropyl-2-((5-(2-((R)-2-methyl-6-(methyl((S)-4-(methylamino)-4-oxobutan-2-yl)amino)hexan-3-yl)-2,6-diazaspiro[3.4]octan-6-yl)-1,2,4-triazin-6-yl)oxy)benzamide fumarate] | > 15000 nM
0.088 nM | – | – | 20 nM | 17 nM | 76 nM | CC(C)[C@@H](C[C@H](O)CN(C)C)N1CC2(CCN(c3ncnnc3Oc3ccc(F)cc3C(=O)N(C(C)C)C(C)C)C2)C1 (single isomer, unassigned) [Compound 366] | > 15000 nM
2.43 nM | – | – | 420 nM | 290 nM | 1360 nM | CC(C)[C@H](CCCN(C)C)N1CC2(CCN(c3ncnnc3Oc3ccc(F)cc3C(=O)N(C(C)C)C(C)C)C2)C1 (single isomer, unassigned) [Compound 103, (*S)-2-((5-(2-(6-(dimethylamino)-2-methylhexan-3-yl)-2,6-diazaspiro[3.4]octan-6-yl)-1,2,4-triazin-6-yl)oxy)-5-fluoro-N,N-diisopropylbenzamide fumarate] | > 15000 nM
4.16 nM | – | – | – | 590 nM | 4690 nM | CCN(C(=O)c1cc(F)ccc1Oc1nncnc1N1CCC2(C1)CN([C@H](CCCN(C)CC(C)OC)C(C)C)C2)C(C)C (single isomer, unassigned) [Compound 254, oxalate] | > 15000 nM
– | – | – | – | 600 nM | 1360 nM | CCN(C(=O)c1cc(F)ccc1Oc1nncnc1N1CCC2(C1)CN([C@@H](CCCN(C)CCOC)C(C)C)C2)C(C)C [Compound 28, (S)—N-ethyl-5-fluoro-N-isopropyl-2-((5-(2-(6-((2-methoxyethyl)(methyl)amino)-2-methylhexan-3-yl)-2,6-diazaspiro[3.4]octan-6-yl)-1,2,4-triazin-6-yl)oxy)benzamide] | > 15000 nM
– | – | – | > 1000 nM | > 940 nM | 7170 nM | CCN(C(=O)c1cc(F)ccc1Oc1nnccc1N1CCC2(C1)CN([C@@H](CCCN(C)CCOC)C(C)C)C2)C(C)C (single isomer, unassigned) [Compound 84, (*S)—N-ethyl-5-fluoro-N-isopropyl-2-((4-(2-(6-((2-methoxyethyl)(methyl)amino)-2-methylhexan-3-yl)-2,6-diazaspiro[3.4]octan-6-yl)pyridazin-3-yl)oxy)benzamide oxalate] | > 15000 nM
10.5 nM | – | – | ~1200 nM | > 3750 nM | – | CCN(C(=O)c1cc(F)ccc1Oc1nncnc1N1CCC2(C1)CN([C@@H](CN)C(C)C)C2)C(C)C (single isomer, unassigned) [Compound 25, (*R)-2-((5-(2-(1-amino-3-methylbutan-2-yl)-2,6-diazaspiro[3.4]octan-6-yl)-1,2,4-triazin-6-yl)oxy)-N-ethyl-5-fluoro-N-isopropylbenzamide] | > 15000 nM
0.16 nM | – | – | – | 40 nM | 190 nM | CCN(C(=O)c1cc(F)ccc1Oc1nncnc1N1CCC2(C1)CN([C@H](CCCN(CCOC)CCOC)C(C)C)C2)C(C)C [Compound 90, (R)-2-((5-(2-(6-(bis(2-methoxyethyl)amino)-2-methylhexan-3-yl)-2,6-diazaspiro[3.4]octan-6-yl)-1,2,4-triazin-6-yl)oxy)-N-ethyl-5-fluoro-N-isopropylbenzamide formate] | 1000 nM
